These are literature values, as cited in patent US20110039804A1, “Composition of Risedronate and Vitamin D3” (LANDSTEINER SCIENTIFIC, S.A. de C.V., priority 2006, published 2011).

Read-outs that look alike come from different tables or passages of the source.

Series [1] concerns patients with Paget's disease.
[2] abbreviates: Paget's disease, 35 mg daily for two months.

Regarding `O=P(O)(O)C(O)(Cc1cccnc1)P(=O)(O)O` [risedronate, 3-pyridil-1-hydroxyethylyden-1,1-bisphosphonic acid], for the setting “humans”, the “average distribution volume in a state of balance” value was 6.3 L/kg. In addition, where the note is “single oral administration, studied range 2.5 mg to 30 mg single dose”, the Tmax entry is “approximately 1 hour”. Also, in series [1] (setting [2]), the deoxypyridinoline/urinary creatinine ratio entry was “Significantly reduced” and the hydroxyproline/urinary creatinine ratio entry is “Significantly reduced”. Also, the new fractures result in series [1] (Paget's disease, 35 mg daily for two months, x-rays before and after 6 months) is listed as “no new fractures”. In addition, in series [1] (Paget's disease, daily dose of 35 mg risedronate for two months), the “Patients with normalized serum alkaline phosphatase concentration” value is recorded as 77%. Further, the “dimension of lithic lesions in the axial and appendicular skeleton” value in series [1] (Paget's disease, x-rays before and after 6 months of treatment) is reported as “Reduced”. Further, the “Patients staying on biochemical remission” value in series [1] (during the 18 months following the two-month treatment) is “Fifty-three”.

Consider `O=P([O-])(O)C(O)(Cc1cccnc1)P(=O)(O)O.[Na+]` [sodium risedronate], for which the systemic metabolism entry (in vivo) was “no evidence of systemic metabolism”. In addition, the “effect of food on oral bioavailability” value (tablet administered with food) is “reduces”. The mid oral bioavailability (tablet, oral) was 0.63%.

Regarding `CC(O)(P(=O)(O)O)P(=O)(O)O` [etidronate], the “Patients with normalized serum alkaline phosphatase concentration” value in series [1] (Paget's disease, control group, etidronate 400 mg/day for 6 months) was 11%.
